Measurements published in patent US20230286973A1, “PROTEIN SECRETION INHIBITORS” (KEZAR LIFE SCIENCES, priority 2020, published 2023).
“And” between values parts separate entries of the source, which are not always exact repeats. Equal entries are not always repeated.

How the values were obtained:
[1] = Liver Microsome Stability Assay (mouse); conditions: mouse liver microsomes, with NADPH, 1.0 uM compound
Description: (§1) Stability of a compound was assessed in the presence of liver microsomes from various sources—mouse, rat, monkey and human liver microsomes. 1.0 uM compound, 0.4% DMSO in 0.1 M Potassium Phosphate with 1.0 mg/mL liver microsomes, were incubated at 37° C. with or without 1 mM NADPH. The samples were quenched at 0, and 30 minutes.

[2] = tested on: IL-2-FL/Gaussia Luciferase; test: Dox Induced IL2-FL-Gluc Assay; type: cell-based; conditions: for IC50: 24 hr Dox induction, 293FRT/TO cells, read-out: 24 hr Dox Inducible IL2FLGluc 293FRT/TO: Mean IC50; for 24 hr Dox Inducible IL2FLGluc 293FRT/TO: IL2/PD1: ratio of IL2FLGluc IC50 to PD1ssGluc IC50
How it was run: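 Reporter is Gaussia luciferase fused to the 3′ end of full-length IL-2 (aa 1-153), expressed from a doxycycline-inducible T-REx construct in stably selected Flp-In 293 cells. Compounds were co-added with doxycycline and incubated at 37° C, 5% CO2.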

[3] = tested on: HER3-ss+4aa/Gaussia Luciferase; test: Dox-Induced Her3-ss-Gluc Assay; type: cell-based; conditions: 24 hr Dox induction; 293FRT/TO cells; read-out: 24 hr Dox Inducible Her3(ss + 4)Gluc 293FRT/TO: Mean IC50
How it was run: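 Expression of a Gaussia luciferase reporter carrying the HER3 signal sequence plus 4 amino acids is induced by doxycycline in stably transfected Flp-In 293 T-REx cells. Compounds are added with doxycycline at 37° C., 5% CO2. Undefined stereocentres denote stereoisomer mixtures.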

[4] = Liver Microsome Stability Assay (human); conditions: human liver microsomes, with NADPH, 1.0 uM compound
Description: as §1

[5] = tested on: multiple myeloma cell line U266B1; test: U266 Cell Viability Assay; type: cell-based, human; conditions: U266B1 cells, Celltiter-Glo
How it was run: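 48 h treatment, 37° C./5% CO2, RPMI 1640 + 10% FBS; viability by CellTiter-Glo luminescence.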

[6] = Liver Microsome Stability Assay (rat); conditions: rat liver microsomes, with NADPH, 1.0 uM compound
Description: as §1

[7] = tested on: PD1-ss+10aa/Gaussia Luciferase; test: Dox-Induced PD1-ss-Gluc Assay; type: cell-based; conditions: 24 hr Dox induction; 293FRT/TO cells; read-out: 24 hr Dox Inducible PD1ssGluc 293FRT/TO: Mean IC50
How it was run: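 Doxycycline-induced expression of a PD1-ss+10aa/Gaussia luciferase reporter is measured in stable Flp-In 293 T-REx cells. Compound dilutions containing doxycycline are added one day after plating and incubated at 37 °C, 5% CO2. Values for unassigned stereocentres refer to stereoisomer mixtures.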

[8] = Liver Microsome Stability Assay (monkey); conditions: monkey liver microsomes, with NADPH, 1.0 uM compound
Description: as §1

[9] = tested on: multiple myeloma cell line NCI-H929; test: H929 Cell Viability Assay; type: cell-based, human; conditions: NCI-H929 cells, Celltiter-Glo
How it was run: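 Plate the myeloma cells in RPMI 1640 with 10% FBS, add serially diluted compound, incubate for 48 hours at 37° C, then add CellTiter-Glo and read luciferase signal.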

[10] = tested on: TNFα-FL/Gaussia Luciferase; test: Dox Induced TNFα-FL-Gluc Assay; type: cell-based; conditions: for IC50: 24 hr Dox induction, 293FRT/TO cells, read-out: 24 hr Dox Inducible TNFaFLGluc 293FRT/TO: Mean IC50; for 24 hr Dox Inducible TNFaFLGluc 293FRT/TO: TNF/PD1: ratio of TNFaFLGluc IC50 to PD1ssGluc IC50
How it was run: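 Cells are seeded one day ahead, then treated with compound plus doxycycline at 37 °C, 5% CO2. The stable Flp-In 293 T-REx line expresses full-length TNFα (amino acids 1-233) with Gaussia luciferase fused to its 3′ end, inducibly via T-REx.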

Liver Microsome Stability (Multiple Species): Mouse - % Remaining after 30 min w/NADPH [1]	IC50 [2]	IC50 [3]	Liver Microsome Stability (Multiple Species): Human - % Remaining after 30 min w/NADPH [4]	EC50 ([5]; Homo sapiens, U-266, 48 h) [µM]	Liver Microsome Stability (Multiple Species): Rat - % Remaining after 30 min w/NADPH [6]	IC50 [7]	Liver Microsome Stability (Multiple Species): Monkey - % Remaining after 30 min w/NADPH [8]	EC50 ([9]; Homo sapiens, NCI-H929, 48 h) [µM]	IC50 [10]	EC50 ([5]; 48 hr) [µM]	EC50 ([9]; 48 hr) [µM]	SMILES	24 hr Dox Inducible IL2FLGluc 293FRT/TO: IL2/PD1 [2]	24 hr Dox Inducible TNFaFLGluc 293FRT/TO: TNF/PD1 [10]
71.9%	1.84 µM	1.07 µM	51%	7.78	88.1%	0.595 µM	17.6%	5.73	11.4 µM	–	–	O=C(Nc1nc([C@H]2CCCN2c2ccc(OC3CCNC3)cc2)cs1)c1cccn1Cc1ccnc(F)c1 (stereo partly drawn) [Compound A80, 1-((2-fluoropyridin-4-yl)methyl)-N-(4-((2R)-1-(4-(pyrrolidin-3-yloxy)phenyl)pyrrolidin-2-yl)thiazol-2-yl)-1H-pyrrole-2-carboxamide]	3.1	19.1
39.5%	0.0415 µM	0.0237 µM	12.8%	> 25	68.9%	0.014 µM	8.77%	0.679	0.143 µM	–	–	CC(=O)N1CC(Oc2ccc(N3CCC[C@@H]3c3csc(NC(=O)c4cccn4Cc4ccnc(F)c4)n3)cc2)C1 [Compound A81, (R)-N-(4-(1-(4-((1-acetylazetidin-3-yl)oxy)phenyl)pyrrolidin-2-yl)thiazol-2-yl)-1-((2-fluoropyridin-4-yl)methyl)-1H-pyrrole-2-carboxamide]	3	10.2
0.84%	0.249 µM	0.21 µM	3.95%	> 25	15.3%	0.0786 µM	0.16%	5.66	0.653 µM	–	–	CC(=O)N1CC=C(Oc2ccc(N3CCC[C@@H]3c3csc(NC(=O)c4cccn4Cc4ccnc(F)c4)n3)cc2)CC1 [Compound A82, (R)-N-(4-(1-(4-((1-acetyl-1,2,3,6-tetrahydropyridin-4-yl)oxy)phenyl)pyrrolidin-2-yl)thiazol-2-yl)-1-((2-fluoropyridin-4-yl)methyl)-1H-pyrrole-2-carboxamide]	3.2	8.31
0.55%	0.232 µM	0.249 µM	0.64%	> 25	16.6%	0.0821 µM	0.16%	4	1.53 µM	–	–	CC(=O)N1CCC[C@@H](Oc2ccc(N3CCC[C@@H]3c3csc(NC(=O)c4cccn4Cc4ccnc(F)c4)n3)cc2)C1 [Compound A83]	2.8	18.6
1%	0.087 µM	0.0626 µM	0.5%	> 25	2.51%	0.0407 µM	0.73%	1.05	0.31 µM	–	–	CC(=O)N1CCC[C@H](Oc2ccc(N3CCC[C@@H]3c3csc(NC(=O)c4cccn4Cc4ccnc(F)c4)n3)cc2)C1 [Compound A84, N-(4-((R)-1-(4-(((S)-1-acetylpiperidin-3-yl)oxy)phenyl)pyrrolidin-2-yl)thiazol-2-yl)-1-((2-fluoropyridin-4-yl)methyl)-1H-pyrrole-2-carboxamide]	2.1	7.61
57.7% and 62.5%	2.11 µM and 1.47 µM	0.566 µM and 0.543 µM	52.8% and 65.2%	10.3	90.7% and 99.6%	0.285 µM and 0.294 µM	49% and 62.5%	6.26	21.6 µM and > 25 µM	7.38	5.29	O=C(Nc1nc([C@H]2CCCN2c2ccc(OC3CNC3)cc2)cs1)c1cccn1Cc1ccnc(F)c1 [Compound A85, (R)-N-(4-(1-(4-(azetidin-3-yloxy)phenyl)pyrrolidin-2-yl)thiazol-2-yl)-1-((2-fluoropyridin-4-yl)methyl)-1H-pyrrole-2-carboxamide]	7.4 and 5	75.9 and > 85.1
75.6%	2.58 µM	1.15 µM	51.1%	8.83	61.8%	0.636 µM	32.6%	6.31	21.5 µM	–	–	O=C(Nc1nc([C@H]2CCCN2c2ccc(O[C@@H]3CCCNC3)cc2)cs1)c1cccn1Cc1ccnc(F)c1 [Compound A87, 1-((2-fluoropyridin-4-yl)methyl)-N-(4-((R)-1-(4-(((R)-piperidin-3-yl)oxy)phenyl)pyrrolidin-2-yl)thiazol-2-yl)-1H-pyrrole-2-carboxamide]	4.1	33.8
71.7%	3.33 µM	1.21 µM	57.6%	11.5	76%	0.952 µM	3.2%	7.33	11 µM	–	–	O=C(Nc1nc([C@H]2CCCN2c2ccc(O[C@H]3CCCNC3)cc2)cs1)c1cccn1Cc1ccnc(F)c1 [Compound A88, 1-((2-fluoropyridin-4-yl)methyl)-N-(4-((R)-1-(4-(((S)-piperidin-3-yl)oxy)phenyl)pyrrolidin-2-yl)thiazol-2-yl)-1H-pyrrole-2-carboxamide]	3.5	11.5
40.4%	2.71 µM	1.11 µM	47%	8.3	56.9%	0.558 µM	2.45%	6.37	18.4 µM	–	–	O=C(Nc1nc([C@H]2CCCN2c2ccc(OC3=CCNCC3)cc2)cs1)c1cccn1Cc1ccnc(F)c1 [Compound A89, (R)-1-((2-fluoropyridin-4-yl)methyl)-N-(4-(1-(4-((1,2,3,6-tetrahydropyridin-4-yl)oxy)phenyl)pyrrolidin-2-yl)thiazol-2-yl)-1H-pyrrole-2-carboxamide]	4.9	32.9
